Data published in patent publication US12180226B2, “Spirotricycle RIPK1 inhibitors and methods of uses thereof” (Merck Sharp & Dohme LLC, priority 2021, dated 2024).

target: RIPK1 (recombinant GST-RIPK1 kinase domain, residues 1-327) (Homo sapiens (Human), UniProt Q13546); assay: RIPK1-ADP-Glo Enzymatic Assay; assay type: biochemical; conditions: ADP-Glo; 25 nM GST-RIPK1, 300 μM ATP; assay lower limit ~25 nM; read-out: RIPK1 V0 Ec50
Procedure, shortened: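 Inhibition of ADP formation was measured after compound and enzyme (25 nM) were pre-incubated for 30 minutes at ambient temperature and the kinase reaction ran for 150 minutes at 300 μM ATP with dephosphorylated MBP substrate. EC50 values come from ten-point curves fitted non-linearly.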

Chain of RIPK1 (recombinant GST-RIPK1 kinase domain, residues 1-327) (Q13546 1-327): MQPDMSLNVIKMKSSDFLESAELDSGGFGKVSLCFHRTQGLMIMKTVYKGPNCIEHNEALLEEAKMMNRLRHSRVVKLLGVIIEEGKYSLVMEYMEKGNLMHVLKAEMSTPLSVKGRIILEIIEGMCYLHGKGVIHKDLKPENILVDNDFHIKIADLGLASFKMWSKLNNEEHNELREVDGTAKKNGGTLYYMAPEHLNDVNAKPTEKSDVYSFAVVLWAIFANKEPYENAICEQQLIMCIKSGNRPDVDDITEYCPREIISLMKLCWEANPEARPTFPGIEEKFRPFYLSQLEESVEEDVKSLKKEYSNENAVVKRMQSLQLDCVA

Going from `COc1ccc(C(=O)N2CCC3(CC2)O[C@@H]2CC[C@@H](c4cc(F)cc(F)c4)N2C3=O)c(F)c1` [Example 5.58, (5′S,7a′R)-5′-(3,5-difluoro-phenyl)-1-(2-fluoro-4-methoxybenzoyl)tetra-hydro-3′H-spiro[piperidine-4,2′-pyrrolo[2,1-b]oxazol]-3'-one] to `O=C(c1ncccc1F)N1CCC2(CC1)O[C@@H]1CC[C@@H](c3cc(F)cc(F)c3)N1C2=O` [Example 6.54, (5′S,7a'R)-5′-(3,5-difluorophenyl)-1-(3-fluoropyridine-2-carbonyl)tetrahydro-3′H-spiro[piperidine-4,2′-pyrrolo[2,1-b] [1,3]oxazol]-3-one], the EC50 rises from 24.8 nM to 45.1 nM (1.8-fold).

`N#Cc1ccc(N2CCC3(CC2)O[C@@H]2CC[C@@H](c4cc(F)cc(F)c4)N2C3=O)cc1` [Example 4.68, 4-[(5′S,7a′R)-5′-(3,5-difluorophenyl)-3′-oxotetrahydro-1H,3′H-spiro[piperidine-4,2′-pyrrolo[2,1-b] [1,3]oxazol]-1-yl]benzonitrile] and `N#Cc1cnc(N2CCC3(CC2)O[C@@H]2CC[C@@H](c4cc(F)cc(F)c4)N2C3=O)cc1F` [Example 4.75, 6-[(5′S,7a′R)-5′-(3,5-difluorophenyl)-3′-oxotetrahydro-1H,3′H-spiro[piperidine-4,2′-pyrrolo[2,1-b] [1,3]oxazol]-1-yl]-4-fluoropyridine-3-carbonitrile] cannot be ordered by EC50: < 25 nM for the first, < 25 nM for the second.

Compared with `O=C(c1ccccn1)N1CCC2(CC1)O[C@@H]1CC[C@@H](c3cc(F)cc(F)c3)N1C2=O` [Example 6.101, (5′S,7a′R)-5′-(3,5-difluorophenyl)-1-(pyridine-2-carbonyl) tetrahydro-3′H-spiro [piperidine-4,2′-pyrrolo[2,1-b][1,3]-oxazol]-3′-one], `O=C(c1cnccn1)N1CCC2(CC1)O[C@@H]1CC[C@@H](c3cc(F)cc(F)c3)N1C2=O` [Example 6.85, (5′S,7a′R)-5′-(3,5-difluorophenyl)-1-(pyrazine-2-carbon-yl)tetrahydro-3′H-spiro[piperidine-4,2′-pyrrolo[2,1-b][1,3]-oxazol]-3′-one] is 1.5-fold lower in EC50: 56.9 nM for the first, 36.9 nM for the second. The second is the more potent here.

First: O=C1N2[C@@H](CC[C@H]2c2ccccc2)OC12CCN(c1nc3cnccc3o1)CC2 [Example 4.159, (5′S,7a′R)-1-([1,3]oxazolo[4,5-c]pyridin-2-yl)-5′-phenyltetrahydro-3′H-spiro[piperidine-4,2′-pyrrolo[2,1-b] [1,3]oxazol]-3′-one]
Second: Cc1nc(N2CCC3(CC2)O[C@@H]2CC[C@@H](c4ccccc4)N2C3=O)ncc1-c1cnoc1 [Example 21.9, (5′S,7a′R)-1-[4-methyl-5-(1,2-oxazol-4-yl)pyrimidin-2-yl]-5′-phenyltetrahydro-3′H-spiro[piperidine-4,2′-pyrrolo[2,1-b][1,3]oxazol]-3′-one]
The EC50 of the first is 1.7-fold higher: 62.6 nM for the first, 37.8 nM for the second.

Going from `COc1nc(N2CCC3(CC2)O[C@@H]2CC[C@@H](c4cc(F)cc(F)c4)N2C3=O)ncc1Cl` [Example 4.62, (5′S,7a′R)-1-(5-chloro-4-methoxypyrimidin-2-yl)-5′-(3,5-difluorophenyl)tetrahydro-3′H-spiro[piperidine-4,2′-pyrrolo[2,1-b] [1,3]oxazol]-3′-one] to `O=C1N2[C@@H](CC[C@H]2c2cc(F)cc(F)c2)OC12CCN(c1ncnc3ccnn13)CC2` [Example 4.128, (5′S,7a′R)-5′-(3,5-difluorophenyl)-1-(pyrazolo[1,5-a] [1,3,5]triazin-4-yl)tetrahydro-3′H-spiro[piperidine-4,2′-pyrrolo[2,1-b] [1,3]oxazol]-3′-one], the EC50 falls from 39.2 nM to < 25 nM. The second is the more potent here.

`O=C1N2[C@@H](CO[C@H]2c2cc(F)cc(F)c2)CC12CCN(c1ccnc3c(F)cnn13)CC2` (stereo in doubt) [Example 4.148, 3′-(3,5-difluorophenyl)-1-(3-fluoropyrazolo[1,5-a]pyrimidin-7-yl)dihydro-1′H,3′H,5′H-spiro[piperidine-4,6′-pyrrolo[1,2-c] [1,3]oxazol]-5′-one] and `O=C1N2[C@H](CC[C@H]2c2cccc(F)c2)OC12CCN(c1ccnc3c(F)cnn13)CC2` [Example 4.15, (5′S,7a′S)-5′-(3-fluorophenyl)-1-(3-fluoropyrazolo[1,5-a]pyrimidin-7-yl)tetrahydro-3′H-spiro[piperidine-4,2′-pyrrolo[2,1-b] [1,3]oxazol]-3′-one] cannot be ordered by EC50: < 25 nM for the first, < 25 nM for the second.

First: O=C1N2[C@@H](CC[C@H]2c2ccccc2)OC12CN(c1cccc3ncnn13)C2 [Example 4.133, (5′S,7a′R)-5′-phenyl-1-([1,2,4]triazolo[1,5-a]pyridin-5-yl)tetrahydro-3′H-spiro[azetidine-3,2′-pyrrolo[2,1-b] [1,3]oxazol]-3′-one]
Second: CC1CN(c2ccnc3ccnn23)CCC12O[C@@H]1CC[C@@H](c3ccccc3)N1C2=O (stereo partly drawn) [Example 4.235, (4R,5′S,7a′R)-3-methyl-5′-phenyl-1-(pyrazolo[1,5-a]pyrimidin-7-yl)tetrahydro-3′H-spiro[piperidine-4,2′-pyrrolo[2,1-b] [1,3]oxazol]-3′-one]
The EC50 of the first is higher: 48.8 nM for the first, < 25 nM for the second. The second is the more potent here.

`O=C(c1cccc(-c2nnco2)c1)N1CCC2(CC1)O[C@@H]1CC[C@@H](c3cc(F)cc(F)c3)N1C2=O` [Example 6.64, (5′S,7a′R)-5′-(3,5-difluorophenyl)-1-[3-(1,3,4-oxadiazol-2-yl)benzene-1-carbon-yl]tetrahydro-3′H-spiro[piperidine-4,2′-pyrrolo[2,1-b][1,3]-oxazol]-3′-one] and `O=C(c1ccc2c(c1)CCO2)N1CCC2(CC1)O[C@@H]1CC[C@@H](c3cc(F)cc(F)c3)N1C2=O` [Example 6.75, (5′S,7a′R)-5′-(3,5-difluorophenyl)-1-(2,3-dihydro-1-benzo-furan-5-carbonyl)-tetrahydro-3′H-spiro [piperidine-4,2′-pyrrolo[2,1-b][1,3]-oxazol]-3′-one] cannot be ordered by EC50: < 25 nM for the first, 24.7 nM for the second.

Going from `O=C(c1ccccc1)N1C2CCC1CC1(C2)O[C@@H]2CC[C@@H](c3cc(F)cc(F)c3)N2C1=O` (stereo partly drawn) [Example 6.134, (5′S,7a′R)-8-(benzene-carbonyl)-5′-(3,5-difluorophenyl)tetra-hydro-3′H-spiro[8-azabicyclo[3.2.1]-octane-3,2′-pyrrolo-[2,1-b][1,3]oxazol]-3′-one] to `O=C(c1cccc(F)c1)N1CCC2(CC1)O[C@@H]1CC[C@@H](c3ccccc3)N1C2=O` [Example 6.154, (5′S,7a′R)-1-(3-fluoro-benzene-1-carbonyl)-5′-phenyltetrahydro-3′H-spiro[piperidine-4,2′-pyrrolo[2,1-b] [1,3]oxazol]-3′-one], the EC50 falls from 92.4 nM to < 25 nM.

Going from `O=C(c1ccccc1)N1CCC2(CC1)O[C@@H]1[C@@H](O)C[C@@H](c3ccccc3)N1C2=O` [Example 6.136] to `Cc1ccc([C@@H]2CC[C@H]3OC4(CCN(C(=O)c5ccccc5)CC4)C(=O)N32)cc1` [Example 17.3, (5′S,7a′R)-1-benzoyl-5′-(p-tolyl)tetrahydro-3′H-spiro[piperidine-4,2′-pyrrolo[2,1-b]oxazol]-3′-one], the EC50 falls from 136 nM to < 25 nM.

`O=C(c1cc(F)ccc1F)N1CCC2(CC1)SC1CCC(c3ccccc3)N1C2=O` (centres unmarked) [Example 1.24, 1-(2,5-difluorobenzene-1-carbonyl)-5′-phenyltetrahydro-3′H-spiro[piperidine-4,2′-pyrrolo[2,1-b] [1,3]thiazol]-3′-one] and `Cc1ccc(C(=O)N2CCC3(CC2)O[C@@H]2CC[C@@H](c4ccccc4)N2C3=O)c(F)c1` [Example 6.152, (5′S,7a′R)-1-(2-fluoro-4-methylbenzene-1-carbonyl)-5′-phenyl-tetrahydro-3′H-spiro [piperidine-4,2′-pyrrolo[2,1-b][1,3]oxazol]-3′-one] cannot be ordered by EC50: 23 nM for the first, < 25 nM for the second.

First: O=C1N2[C@H](OC13CCN(c1ccnc4c(F)cnn14)CC3)[C@@H](O)C[C@H]2c1ccccc1 [Example 4.271, (5′S,7′S,7a′R)-1-(3-fluoropyrazolo[1,5-a]pyrimidin-7-yl)-7′-hydroxy-5′-phenyltetrahydro-3′H-spiro[piperidine-4,2′-pyrrolo[2,1-b] [1,3]oxazol]-3′-one]
Second: O=C1N2[C@@H](CC[C@H]2c2ccccc2)OC12CCN(c1ncc(C3CC3)cn1)CC2 [Example 11.13, (5′S,7a′R)-1-(5-cyclopropylpyrimidin-2-yl)-5′-phenyltetrahydro-3′H-spiro[piperidine-4,2′-pyrrolo[2,1-b][1,3]oxazol]-3′-one]
The EC50 of the first is lower: < 25 nM for the first, 266 nM for the second.

Compared with `N#Cc1ccc(N2CCC3(CC2)O[C@@H]2CC[C@@H](c4cccc(F)c4)N2C3=O)n2nccc12` [Example 4.157, 7-[(5′S,7a′R)-5′-(3-fluorophenyl)-3′-oxotetrahydro-1H,3′H-spiro[piperidine-4,2′-pyrrolo[2,1-b] [1,3]oxazol]-1-yl]pyrazolo[1,5-a] pyridine-4-carbonitrile], `O=C1N2[C@@H](CC[C@H]2c2cccc(F)c2)OC12CCN(c1cc(F)ccn1)CC2` [Example 4.126, (5′S,7a′R)-5′-(3-fluorophenyl)-1-(4-fluoropyridin-2-yl)tetrahydro-3′H-spiro[piperidine-4,2′-pyrrolo[2,1-b] [1,3]oxazol]-3′-one] is higher in EC50: < 25 nM for the first, 46.7 nM for the second. The first is the more potent here.

First: Cc1c(Cl)ncnc1N1CCC2(CC1)O[C@@H]1CC[C@@H](c3ccccc3)N1C2=O [Example 4.30, (5′S,7a′R)-1-(6-chloro-5-methylpyrimidin-4-yl)-5′-phenyltetrahydro-3′H-spiro[piperidine-4,2′-pyrrolo[2,1-b] [1,3]oxazol]-3′-one]
Second: O=C1N2[C@@H](CC[C@H]2c2ccccc2)OC12CCN(c1ccc(-n3ccnc3)nn1)CC2 [Example 11.18, (5′S,7a′R)-1-[6-(1H-imidazol-1-yl)pyridazin-3-yl]-5′-phenyltetrahydro-3′H-spiro[piperidine-4,2′-pyrrolo[2,1-b][1,3]oxazol]-3′-one]
The EC50 of the first is lower: < 25 nM for the first, 93 nM for the second. The first is the more potent here.

With `N#Cc1cc(N2CC3(C2)O[C@@H]2CC[C@@H](c4cc(F)cc(F)c4)N2C3=O)ncn1` [Example 4.118, 6-((5′S,7a′R)-5′-(3,5-difluorophenyl)-3′-oxotetrahydro-3′H-spiro[azetidine-3,2′-pyrrolo[2,1-b]oxazol]-1-yl)pyrimidine-4-carbonitrile] the EC50 was 228 nM.
